Measured values published in ChEMBL document CHEMBL1143269, “2-(6-Phenyl-1H-indazol-3-yl)-1H-benzo[d]imidazoles: design and synthesis of a potent and isoform selective PKC-zeta inhibitor” (Bioorg Med Chem Lett, 2009).
One block for each molecule: values may come before it.

Assays:
[1] = target: Cyclin-dependent kinase 2 (Homo sapiens, UniProt P24941); experiment: Inhibition of human CDK2
[2] = target: T1, Protein kinase C zeta type (Homo sapiens, UniProt Q05513); experiment: Inhibition of human PKCzeta
T1 sequence (Q05513 whole entry): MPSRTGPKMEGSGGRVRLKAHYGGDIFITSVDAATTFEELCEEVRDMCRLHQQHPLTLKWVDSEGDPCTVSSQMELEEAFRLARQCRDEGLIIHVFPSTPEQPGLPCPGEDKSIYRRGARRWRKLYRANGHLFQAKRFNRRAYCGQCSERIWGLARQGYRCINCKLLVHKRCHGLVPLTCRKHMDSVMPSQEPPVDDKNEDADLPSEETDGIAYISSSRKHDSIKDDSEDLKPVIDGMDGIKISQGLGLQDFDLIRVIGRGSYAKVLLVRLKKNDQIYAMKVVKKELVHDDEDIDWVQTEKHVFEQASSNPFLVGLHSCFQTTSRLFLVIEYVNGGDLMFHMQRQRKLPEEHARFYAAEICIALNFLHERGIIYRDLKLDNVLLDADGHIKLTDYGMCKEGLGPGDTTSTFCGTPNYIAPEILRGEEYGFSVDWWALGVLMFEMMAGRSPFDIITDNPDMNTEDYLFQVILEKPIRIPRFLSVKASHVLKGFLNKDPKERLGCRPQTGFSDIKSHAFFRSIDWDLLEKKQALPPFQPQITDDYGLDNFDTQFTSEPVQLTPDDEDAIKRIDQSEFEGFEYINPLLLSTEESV

Homo sapiens = species on record: Homo sapiens; experiment: Selectivity ratio of IC50 for human CDK2 to IC50 for human PKCzeta
[3] = Inhibition of GSK3
[4] = target: RAC-alpha serine/threonine-protein kinase (Homo sapiens) (UniProt P31749); experiment: Inhibition of PKB alpha at 10 uM
Mus musculus = species on record: Mus musculus; experiment: Inhibition of mouse MKK4 at 10 uM
[5] = target: Ephrin type-B receptor 4 (Homo sapiens) (UniProt P54760); experiment: Inhibition of EphB4 at 10 uM
[6] = target: Tyrosine-protein kinase Fyn (Homo sapiens) (UniProt P06241); experiment: Inhibition of Fyn at 10 uM
[7] = target: Tyrosine-protein kinase ABL1 (Homo sapiens) (UniProt P00519); experiment: Inhibition of Abl at 10 uM
[8] = target: Glycogen synthase kinase-3 beta (Homo sapiens) (UniProt P49841); experiment: Inhibition of GSK3-beta at 10 uM
Glycogen synthase kinase-3 beta (Homo sapiens), sequence (P49841 whole entry, looked up): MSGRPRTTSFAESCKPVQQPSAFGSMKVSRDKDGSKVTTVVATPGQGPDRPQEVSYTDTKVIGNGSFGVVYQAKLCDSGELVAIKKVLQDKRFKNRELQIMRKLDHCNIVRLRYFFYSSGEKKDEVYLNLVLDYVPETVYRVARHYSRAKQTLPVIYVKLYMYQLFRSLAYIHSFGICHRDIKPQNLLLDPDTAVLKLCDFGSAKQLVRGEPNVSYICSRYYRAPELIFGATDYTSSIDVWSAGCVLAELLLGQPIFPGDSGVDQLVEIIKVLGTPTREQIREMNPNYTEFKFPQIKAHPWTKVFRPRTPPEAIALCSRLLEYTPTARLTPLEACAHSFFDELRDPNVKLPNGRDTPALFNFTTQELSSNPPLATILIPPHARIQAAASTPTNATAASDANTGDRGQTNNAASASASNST

[9] = target: Insulin receptor (Homo sapiens) (UniProt P06213); experiment: Inhibition of insulin receptor at 10 uM
[10] = target: Angiopoietin-1 receptor (Homo sapiens) (UniProt Q02763); experiment: Inhibition of Tie2 at 10 uM
[11] = target: Dual specificity mitogen-activated protein kinase kinase 1 (Homo sapiens) (UniProt Q02750); experiment: Inhibition of MEK1 at 10 uM
[12] = target: Cytoplasmic tyrosine-protein kinase BMX (Homo sapiens) (UniProt P51813); experiment: Inhibition of Bmx at 10 uM
[13] = target: Rho-associated protein kinase 2 (Homo sapiens) (UniProt O75116); experiment: Inhibition of Rock2 at 10 uM
[14] = Inhibition of CK2 at 10 uM
[15] = target: Aurora kinase A (Homo sapiens) (UniProt O14965); experiment: Inhibition of Aurora A at 10 uM
Aurora kinase A (Homo sapiens), sequence (O14965 whole entry): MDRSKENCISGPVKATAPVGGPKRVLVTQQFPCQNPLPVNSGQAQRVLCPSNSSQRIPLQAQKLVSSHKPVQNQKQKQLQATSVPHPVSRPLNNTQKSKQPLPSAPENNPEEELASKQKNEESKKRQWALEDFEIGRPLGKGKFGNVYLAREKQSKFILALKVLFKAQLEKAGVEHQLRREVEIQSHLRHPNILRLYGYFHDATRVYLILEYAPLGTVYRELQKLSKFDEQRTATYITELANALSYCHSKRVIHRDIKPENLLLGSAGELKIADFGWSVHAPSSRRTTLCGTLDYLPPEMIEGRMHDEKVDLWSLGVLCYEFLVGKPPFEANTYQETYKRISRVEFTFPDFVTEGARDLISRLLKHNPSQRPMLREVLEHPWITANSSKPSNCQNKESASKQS

[16] = target: Tyrosine-protein kinase receptor UFO (Homo sapiens) (UniProt P30530); experiment: Inhibition of Axl at 10 uM
[17] = target: RAF proto-oncogene serine/threonine-protein kinase (Homo sapiens) (UniProt P04049); experiment: Inhibition of c-Raf at 10 uM
[18] = target: ALK tyrosine kinase receptor (Homo sapiens) (UniProt Q9UM73); experiment: Inhibition of ALK at 10 uM
ALK tyrosine kinase receptor (Homo sapiens), sequence (Q9UM73 19-1620 limits assumed): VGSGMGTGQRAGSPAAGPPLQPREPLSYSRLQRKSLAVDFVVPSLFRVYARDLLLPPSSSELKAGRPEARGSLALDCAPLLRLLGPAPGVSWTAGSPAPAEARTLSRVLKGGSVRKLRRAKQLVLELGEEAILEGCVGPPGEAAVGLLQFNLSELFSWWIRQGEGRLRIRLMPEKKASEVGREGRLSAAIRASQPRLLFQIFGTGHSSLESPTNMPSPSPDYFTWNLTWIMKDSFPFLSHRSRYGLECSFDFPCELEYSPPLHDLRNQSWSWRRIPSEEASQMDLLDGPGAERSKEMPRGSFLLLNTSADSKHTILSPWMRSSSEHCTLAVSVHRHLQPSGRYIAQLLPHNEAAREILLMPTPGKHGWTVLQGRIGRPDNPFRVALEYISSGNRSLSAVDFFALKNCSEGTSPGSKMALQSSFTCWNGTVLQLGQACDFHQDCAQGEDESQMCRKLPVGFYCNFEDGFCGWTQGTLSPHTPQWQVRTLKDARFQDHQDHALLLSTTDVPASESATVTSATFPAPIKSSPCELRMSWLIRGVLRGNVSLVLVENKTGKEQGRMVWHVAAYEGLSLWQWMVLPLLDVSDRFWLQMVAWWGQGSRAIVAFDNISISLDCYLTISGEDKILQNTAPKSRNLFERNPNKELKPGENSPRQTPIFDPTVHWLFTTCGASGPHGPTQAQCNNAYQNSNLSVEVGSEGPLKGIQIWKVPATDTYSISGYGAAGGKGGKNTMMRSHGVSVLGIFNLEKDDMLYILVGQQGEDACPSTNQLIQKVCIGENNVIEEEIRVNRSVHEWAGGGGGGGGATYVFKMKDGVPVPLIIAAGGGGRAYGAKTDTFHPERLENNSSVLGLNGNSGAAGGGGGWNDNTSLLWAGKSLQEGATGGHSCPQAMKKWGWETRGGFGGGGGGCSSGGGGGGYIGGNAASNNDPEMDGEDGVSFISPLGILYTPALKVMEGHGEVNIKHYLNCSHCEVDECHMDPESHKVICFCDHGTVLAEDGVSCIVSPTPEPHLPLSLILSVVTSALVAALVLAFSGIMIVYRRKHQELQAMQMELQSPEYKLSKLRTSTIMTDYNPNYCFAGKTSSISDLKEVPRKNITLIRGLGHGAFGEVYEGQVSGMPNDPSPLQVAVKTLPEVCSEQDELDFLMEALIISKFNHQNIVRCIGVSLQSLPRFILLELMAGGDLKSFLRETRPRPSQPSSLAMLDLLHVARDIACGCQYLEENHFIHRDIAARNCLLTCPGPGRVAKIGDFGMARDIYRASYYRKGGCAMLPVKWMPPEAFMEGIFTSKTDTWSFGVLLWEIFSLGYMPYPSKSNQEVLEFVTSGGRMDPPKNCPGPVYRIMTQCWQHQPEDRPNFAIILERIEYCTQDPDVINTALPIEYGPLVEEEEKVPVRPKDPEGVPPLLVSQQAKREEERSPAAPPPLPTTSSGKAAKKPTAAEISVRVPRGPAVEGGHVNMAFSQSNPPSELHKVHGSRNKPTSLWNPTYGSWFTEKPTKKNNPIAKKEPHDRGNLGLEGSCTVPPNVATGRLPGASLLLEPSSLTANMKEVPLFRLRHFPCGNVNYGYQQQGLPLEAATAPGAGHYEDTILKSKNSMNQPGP

[19] = target: Platelet-derived growth factor receptor beta (Homo sapiens) (UniProt P09619); experiment: Inhibition of PDGFRbeta at 10 uM
[20] = target: Casein kinase I isoform delta (Rattus norvegicus) (UniProt Q06486); experiment: Inhibition of rat CK1delta at 10 uM
[21] = target: Epidermal growth factor receptor (Homo sapiens) (UniProt P00533); experiment: Inhibition of EGFR at 10 uM
[22] = target: Proto-oncogene tyrosine-protein kinase Src (Homo sapiens) (UniProt P12931); experiment: Inhibition of Src at 10 uM
[23] = Inhibition of rat CAMK2 at 10 uM
[24] = target: RAC-gamma serine/threonine-protein kinase (Homo sapiens) (UniProt Q9Y243); experiment: Inhibition of PKB gamma at 10 uM
[25] = target: Calcium/calmodulin-dependent protein kinase type IV (Homo sapiens) (UniProt Q16566); experiment: Inhibition of CAMK4 at 10 uM
Calcium/calmodulin-dependent protein kinase type IV (Homo sapiens), sequence (Q16566 whole entry): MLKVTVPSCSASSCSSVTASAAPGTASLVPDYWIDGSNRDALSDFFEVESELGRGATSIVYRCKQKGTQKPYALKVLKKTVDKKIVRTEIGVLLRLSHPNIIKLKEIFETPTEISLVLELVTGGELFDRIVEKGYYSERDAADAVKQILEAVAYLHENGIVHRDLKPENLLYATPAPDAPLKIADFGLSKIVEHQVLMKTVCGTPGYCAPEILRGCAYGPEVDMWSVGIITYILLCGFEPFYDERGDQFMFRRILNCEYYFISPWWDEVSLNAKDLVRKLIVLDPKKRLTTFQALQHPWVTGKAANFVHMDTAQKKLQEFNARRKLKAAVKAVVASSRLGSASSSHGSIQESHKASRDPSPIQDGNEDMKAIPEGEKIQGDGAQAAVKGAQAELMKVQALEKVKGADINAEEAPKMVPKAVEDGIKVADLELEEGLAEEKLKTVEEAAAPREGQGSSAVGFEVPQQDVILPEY

[26] = Inhibition of PKA at 10 uM
[27] = target: Receptor-type tyrosine-protein kinase FLT3 (Homo sapiens) (UniProt P36888); experiment: Inhibition of Flt3 at 10 uM
[28] = target: Tyrosine-protein kinase ZAP-70 (Homo sapiens) (UniProt P43403); experiment: Inhibition of Zap70 at 10 uM
[29] = target: Tyrosine-protein kinase SYK (Homo sapiens) (UniProt P43405); experiment: Inhibition of Syk at 10 uM
[30] = target: 3-phosphoinositide-dependent protein kinase 1 (Homo sapiens) (UniProt O15530); experiment: Inhibition of PDK1 at 10 uM
[31] = target: Ribosomal protein S6 kinase beta-1 (Homo sapiens) (UniProt P23443); experiment: Inhibition of P70S6K at 10 uM
[32] = target: Insulin-like growth factor 1 receptor (Homo sapiens) (UniProt P08069); experiment: Inhibition of IGF1R at 10 uM
[33] = target: Tyrosine-protein kinase Fes/Fps (Homo sapiens) (UniProt P07332); experiment: Inhibition of Fes at 10 uM
[34] = target: BDNF/NT-3 growth factors receptor (Homo sapiens) (UniProt Q16620); experiment: Inhibition of TrkB at 10 uM
[35] = target: Proto-oncogene tyrosine-protein kinase receptor Ret (Homo sapiens) (UniProt P07949); experiment: Inhibition of Ret at 10 uM
Proto-oncogene tyrosine-protein kinase receptor Ret (Homo sapiens), sequence (P07949 whole entry): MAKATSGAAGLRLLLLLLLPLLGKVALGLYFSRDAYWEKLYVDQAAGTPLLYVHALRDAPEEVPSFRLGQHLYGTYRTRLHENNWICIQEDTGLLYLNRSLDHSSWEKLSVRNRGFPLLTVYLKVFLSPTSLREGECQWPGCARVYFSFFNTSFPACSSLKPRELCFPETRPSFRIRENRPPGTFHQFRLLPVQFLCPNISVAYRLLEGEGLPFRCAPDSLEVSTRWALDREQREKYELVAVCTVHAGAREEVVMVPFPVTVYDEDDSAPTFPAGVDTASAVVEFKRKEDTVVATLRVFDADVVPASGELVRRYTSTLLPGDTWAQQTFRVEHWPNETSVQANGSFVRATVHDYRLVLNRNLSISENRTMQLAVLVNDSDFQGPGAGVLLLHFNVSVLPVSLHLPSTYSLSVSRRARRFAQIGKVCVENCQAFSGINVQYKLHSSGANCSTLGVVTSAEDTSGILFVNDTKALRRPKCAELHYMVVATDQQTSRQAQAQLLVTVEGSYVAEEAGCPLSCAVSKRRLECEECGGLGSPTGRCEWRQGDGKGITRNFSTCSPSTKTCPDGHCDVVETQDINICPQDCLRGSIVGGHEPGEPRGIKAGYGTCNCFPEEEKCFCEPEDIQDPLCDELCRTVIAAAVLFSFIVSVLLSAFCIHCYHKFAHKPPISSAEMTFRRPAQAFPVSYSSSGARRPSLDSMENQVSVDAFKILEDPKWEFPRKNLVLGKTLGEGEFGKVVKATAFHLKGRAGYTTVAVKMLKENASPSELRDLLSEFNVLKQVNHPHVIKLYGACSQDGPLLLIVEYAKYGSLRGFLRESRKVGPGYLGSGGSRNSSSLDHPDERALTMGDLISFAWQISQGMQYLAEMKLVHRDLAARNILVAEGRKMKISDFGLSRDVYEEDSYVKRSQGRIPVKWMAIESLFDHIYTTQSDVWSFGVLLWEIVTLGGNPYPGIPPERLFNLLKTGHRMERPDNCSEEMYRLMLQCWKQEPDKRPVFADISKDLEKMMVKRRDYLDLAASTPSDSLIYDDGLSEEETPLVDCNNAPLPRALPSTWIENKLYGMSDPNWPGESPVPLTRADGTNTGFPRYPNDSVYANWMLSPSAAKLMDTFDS

[36] = target: Tyrosine-protein kinase Lck (Homo sapiens) (UniProt P06239); experiment: Inhibition of Lck at 10 uM
[37] = target: Tyrosine-protein kinase CSK (Homo sapiens) (UniProt P41240); experiment: Inhibition of CSK at 10 uM
Tyrosine-protein kinase CSK (Homo sapiens), sequence (P41240 2-450 limits assumed): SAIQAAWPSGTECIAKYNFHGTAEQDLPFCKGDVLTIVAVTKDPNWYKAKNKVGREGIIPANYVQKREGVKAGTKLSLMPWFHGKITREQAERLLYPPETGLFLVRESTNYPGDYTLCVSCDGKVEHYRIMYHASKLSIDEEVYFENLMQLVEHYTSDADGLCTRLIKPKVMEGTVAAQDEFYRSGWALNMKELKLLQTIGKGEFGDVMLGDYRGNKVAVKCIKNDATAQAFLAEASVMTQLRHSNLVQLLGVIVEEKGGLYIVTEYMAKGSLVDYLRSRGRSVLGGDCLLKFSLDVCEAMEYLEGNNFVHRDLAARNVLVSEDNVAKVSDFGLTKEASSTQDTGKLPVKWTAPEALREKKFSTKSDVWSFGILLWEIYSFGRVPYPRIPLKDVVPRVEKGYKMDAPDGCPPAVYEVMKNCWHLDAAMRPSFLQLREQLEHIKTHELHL

[38] = target: RAC-beta serine/threonine-protein kinase (Homo sapiens) (UniProt P31751); experiment: Inhibition of PKB beta at 10 uM
RAC-beta serine/threonine-protein kinase (Homo sapiens), sequence (P31751 whole entry): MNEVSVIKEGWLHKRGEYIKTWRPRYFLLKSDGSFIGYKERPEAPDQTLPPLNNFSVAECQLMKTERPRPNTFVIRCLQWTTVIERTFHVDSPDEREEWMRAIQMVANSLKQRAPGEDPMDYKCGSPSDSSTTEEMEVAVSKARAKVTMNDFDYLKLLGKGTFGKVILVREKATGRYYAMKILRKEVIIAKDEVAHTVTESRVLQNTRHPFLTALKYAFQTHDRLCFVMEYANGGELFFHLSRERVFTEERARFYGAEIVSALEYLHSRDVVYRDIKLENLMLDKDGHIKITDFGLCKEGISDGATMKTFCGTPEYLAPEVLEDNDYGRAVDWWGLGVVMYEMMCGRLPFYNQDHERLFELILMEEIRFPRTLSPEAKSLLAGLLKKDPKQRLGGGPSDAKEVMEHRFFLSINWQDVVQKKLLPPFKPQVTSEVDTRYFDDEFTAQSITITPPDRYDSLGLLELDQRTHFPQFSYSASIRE

[39] = target: Serine/threonine-protein kinase Chk1 (Homo sapiens) (UniProt O14757); experiment: Inhibition of CHK1 at 10 uM

SMILES: CN1CCN(c2cccc3[nH]c(-c4n[nH]c5cc(-c6ccc(O)cc6)ccc45)nc23)CC1
- IC50 [1]: 0.0133 µM

SMILES: CN1CCN(c2cccc3[nH]c(-c4n[nH]c5cc(-c6cccc(N)c6)ccc45)nc23)CC1
- IC50 [1]: 6.1 µM
- IC50 [2]: 1.51 µM
- Ratio IC50 (Homo sapiens): 4

SMILES: CNc1ccc(-c2ccc3c(-c4nc5c(N6CCN(C)CC6)cccc5[nH]4)n[nH]c3c2)cc1
- IC50 [1]: 109 µM

SMILES: COc1cc(-c2ccc3c(-c4nc5c(N6CCN(C)CC6)cccc5[nH]4)n[nH]c3c2)ccc1O
- IC50 [1]: 0.0041 µM
- IC50 [2]: 0.00226 µM
- Ratio IC50 (Homo sapiens): 1.8

SMILES: CN1CCN(c2cccc3[nH]c(-c4n[nH]c5cc(-c6ccc7c[nH]nc7c6)ccc45)nc23)CC1
- IC50 [2]: 1.07 µM

SMILES: COc1cc(-c2ccc3c(-c4nc5c(N6CCN(C)CC6)cccc5[nH]4)n[nH]c3c2)ccc1N
- IC50 [1]: 0.247 µM

SMILES: CN1CCN(c2cccc3[nH]c(-c4n[nH]c5cc(-c6ccc(CN)cc6)ccc45)nc23)CC1
- IC50 [1]: 10 µM

SMILES: CN1CCN(c2cccc3[nH]c(-c4n[nH]c5cc(-c6ccc(N)c(F)c6)ccc45)nc23)CC1
- IC50 [1]: 1.73 µM

SMILES: CN1CCN(c2cccc3[nH]c(-c4n[nH]c5cc(-c6ccc(N(C)C)cc6)ccc45)nc23)CC1
- IC50 [2]: 1.31 µM

SMILES: CC(=O)Nc1ccc(-c2ccc3c(-c4nc5c(N6CCN(C)CC6)cccc5[nH]4)n[nH]c3c2)cc1
- IC50 [1]: 10 µM
- IC50 [2]: 8.8 µM
- Ratio IC50 (Homo sapiens): 1.1

SMILES: COc1cc(O)ccc1-c1ccc2c(-c3nc4c(N5CCN(C)CC5)cccc4[nH]3)n[nH]c2c1
- inhibition [4]: < 50%
- inhibition (Mus musculus): < 50%
- inhibition [5]: < 50%
- inhibition [6]: < 50%
- inhibition [7]: < 50%
- inhibition [8]: < 50%
- inhibition [9]: < 50%
- inhibition [10]: < 50%
- inhibition [11]: < 50%
- inhibition [12]: < 50%
- inhibition [13]: < 50%
- inhibition [14]: < 50%
- inhibition [15]: < 50%
- IC50 [1]: 0.102 µM
- inhibition [16]: < 50%
- inhibition [17]: < 50%
- inhibition [18]: < 50%
- inhibition [19]: < 50%
- inhibition [20]: < 50%
- inhibition [21]: < 50%
- inhibition [22]: < 50%
- inhibition [23]: < 50%
- inhibition [24]: < 50%
- inhibition [25]: < 50%
- inhibition [26]: < 50%
- inhibition [27]: < 50%
- inhibition [28]: < 50%
- inhibition [29]: < 50%
- inhibition [30]: < 50%
- inhibition [31]: < 50%
- inhibition [32]: < 50%
- inhibition [33]: < 50%
- inhibition [34]: < 50%
- inhibition [35]: < 50%
- inhibition [36]: < 50%
- inhibition [37]: < 50%
- inhibition [38]: < 50%
- inhibition [39]: < 50%

SMILES: CN1CCN(c2cccc3[nH]c(-c4n[nH]c5cc(-c6ccc7[nH]ccc7c6)ccc45)nc23)CC1
- IC50 [1]: 10 µM
- IC50 [2]: 4.08 µM
- Ratio IC50 (Homo sapiens): 2.5

SMILES: CN1CCN(c2cccc3[nH]c(-c4n[nH]c5cc(-c6ccc(S(N)(=O)=O)cc6)ccc45)nc23)CC1
- IC50 [2]: 8.93 µM

Results, then the molecule that gave them:

- IC50 [1]: 21.5 µM
SMILES: CN1CCN(c2cccc3[nH]c(-c4n[nH]c5cc(-c6ccc(CO)cc6)ccc45)nc23)CC1

- IC50 [1]: 10 µM
SMILES: COc1ccc(-c2ccc3c(-c4nc5c(N6CCN(C)CC6)cccc5[nH]4)n[nH]c3c2)c(OC)c1

- IC50 [1]: 10 µM
SMILES: CC(=O)c1ccc(-c2ccc3c(-c4nc5c(N6CCN(C)CC6)cccc5[nH]4)n[nH]c3c2)cc1

- IC50 [1]: 0.005 µM
- IC50 [3]: 0.0008 µM
SMILES: O=C(NC1CC1)c1n[nH]c2cc(-c3ccc(O)cc3)c(Br)cc12

- inhibition [4]: < 50%
- inhibition (Mus musculus): < 50%
- inhibition [5]: < 50%
- inhibition [6]: < 50%
- inhibition [7]: < 50%
- inhibition [8]: < 50%
- inhibition [9]: < 50%
- inhibition [10]: < 50%
- inhibition [11]: < 50%
- inhibition [12]: < 50%
- inhibition [13]: < 50%
- inhibition [14]: < 50%
- inhibition [15]: < 50%
- inhibition [16]: < 50%
- inhibition [17]: < 50%
- inhibition [18]: < 50%
- inhibition [19]: < 50%
- inhibition [20]: < 50%
- inhibition [21]: < 50%
- inhibition [22]: < 50%
- inhibition [23]: < 50%
- inhibition [24]: < 50%
- inhibition [25]: < 50%
- inhibition [26]: < 50%
- inhibition [27]: < 50%
- inhibition [28]: < 50%
- inhibition [29]: < 50%
- inhibition [30]: < 50%
- inhibition [31]: < 50%
- inhibition [32]: < 50%
- inhibition [33]: < 50%
- inhibition [34]: < 50%
- inhibition [35]: < 50%
- inhibition [36]: < 50%
- inhibition [37]: < 50%
- inhibition [38]: < 50%
- inhibition [39]: < 50%
SMILES: CN1CCN(c2cccc3nc(-c4n[nH]c5cc(-c6ccc(N)cc6)ccc45)[nH]c23)CC1

- IC50 [1]: 10 µM
SMILES: CN1CCN(c2cccc3[nH]c(-c4n[nH]c5cc(-c6ccc(C(=O)O)cc6)ccc45)nc23)CC1

- IC50 [1]: 10 µM
- IC50 [2]: 5.52 µM
- Ratio IC50 (Homo sapiens): 1.8
SMILES: COc1ccccc1-c1ccc2c(-c3nc4c(N5CCN(C)CC5)cccc4[nH]3)n[nH]c2c1

- IC50 [1]: 10 µM
- IC50 [2]: 19 µM
- Ratio IC50 (Homo sapiens): 0.5
SMILES: COc1cc(F)ccc1-c1ccc2c(-c3nc4c(N5CCN(C)CC5)cccc4[nH]3)n[nH]c2c1
